Laboratory results published in patent publication US20110160399A1, “HISTONE MODIFICATION INHIBITOR SPECIFIC TO TARGET GENE” (NIHON UNIVERSITY, priority 2008, published 2011).

Legend:
[1] = tested on: MDA-MB231 breast cancer cells; test: Cell proliferation assay (II), trypan blue cell counts; assay type: cell-based; conditions: after culture for 72 hours, FIG. 12
Description: MDA-MB231 breast cancer cells (1×10^5 cells) were cultured in 6 cm diameter dishes using RPMI-1640 medium containing fetal bovine serum at a final concentration of 10%. For culture, the medium was supplemented with or without each polyamide (SAHA+p16NU PIP or SAHA+non-targeting PIP) at the final concentration indicated below.
Starting from the initiation of culture, the following operation was repeated every 24 hours. Namely, after being observed under a microscope, the cells were harvested and counted to determine the numbers of viable cells […] and dead cells […]. As a result, proliferation of the cells and their survival rate were determined.

[2] = tested on: HeLa (human uterine cervical cancer cell line); test: Cell proliferation assay (WST-8) on HeLa cells; assay type: cell-based; conditions: 72 hours, various concentrations, WST-8, FIG. 3, FIG. 4
Description: Next, the synthesized compounds were verified by WST-8 assay for their ability to suppress cancer cell proliferation.
Cell lines of HeLa (human uterine cervical cancer cell line), LOVO, RKO and SW480 (each of which was a human large bowel cancer cell line) were each cultured at 37° C. under 5% carbon dioxide conditions using Dulbecco's modified Eagle's medium (DMEM, Nacalai Tesque, Inc., Japan) supplemented with 10% fetal bovine serum (FBS: JRH bioscience, USA), antibiotics (50 U/ml penicillin and 50 μg/ml streptomycin) and 1 mM sodium pyruvate. Single-layered cells grown to 80-90% confluency on 10 cm cell culture dishes were washed with D-PBS(−) (Nacalai Tesque, Inc., Japan) and then released from the dishes by being treated with a phenol red-containing 2.5 g/L-Trypsine/1 mmol/L EDTA solution (Nacalai Tesque, Inc., Japan). The released cells were adjusted and maintained in fresh medium.
Each cell line seeded at 3×10^3 cells/well in a MICROTEST tissue culture plate (96 well, FALCON) was cultured at 37° C. under 5% carbon dioxide conditions for 24 hours, and then cultured in the presence of various concentrations of PI polyamide for an additional 72 hours. After completion of the culture, 10 μl of viable cell counting reagent SF (Nacalai Tesque, Inc., Japan) was added to each well and the absorbance at 450 nm was measured by ARVO EX (PerkinElmer). During the period from reagent addition until assay, incubation was continued at 37° C. in the presence of 5% CO2 until the absorbance reached about 1.2 to 2.0 in the control sample where only 50% DMSO was added to the cells.

[3] = tested on: histone deacetylase (HDAC); test: HDAC activity assay (HDAC Fluorimetric Assay/Drug Discovery Kit); assay type: biochemical, human; conditions: HDAC-containing HeLa cell nuclear fraction, 37°C for 1 hour, various concentrations, FIG. 2
Description: To verify whether the activity of histone deacetylase (HDAC) was inhibited by compounds composed of the synthesized SAHA derivatives and polyamides attached to each other, an HDAC Fluorimetric Assay/Drug Discovery Kit (BIOMOL international) was used in the experiment. Although details followed the instructions of the kit manufacturer, an HDAC-containing HeLa cell (human uterine cervical cancer cell line) nuclear fraction was added to an acetylation substrate and incubated at 37° C. for 1 hour in the presence of various concentrations of the synthesized compounds or trichostatin A (hereinafter referred to as TSA) used as a positive control, followed by addition of the developer included in the kit to stop the HDAC-catalyzed reaction. Then, the samples were transferred to a 96-well assay plate and measured with ARVO EX (Perkin Elmer) for emission at 460 nm from the reaction product upon excitation at 360 nm.

| Compound | cell proliferation significantly suppressed, compared to untreated group or 1 μM SAHA+non-targeting PIP ([1]; MDA-MB231, 1 μM) | cell proliferation significantly suppressed, compared to untreated group or 1 μM SAHA+non-targeting PIP ([1]; MDA-MB231, 2 μM) | suppression of HeLa cell proliferation [2] | anti-HDAC activity [3] | anti-HDAC activity ([3]; listed as conjugate between esterified SAHA and p16 PIP) |
| --- | --- | --- | --- | --- | --- |
| SAHA-H2NββPyPyβPyPyPyγImImImβPyImβDp [SAHA+p16NU PIP] | 83% | about 60% |  |  |  |
| COC(=O)CCCCCCC(=O)Nc1ccc(C(=O)NCCC(=O)NCCC(=O)Nc2cn(C)c(C(=O)Nc3cc(C(=O)Nc4cc(C(=O)NCCC(=O)Nc5cn(C)c(C(=O)Nc6cc(C(=O)NCCCC(=O)Nc7cn(C)c(C(=O)Nc8cc(C(=O)NCCC(=O)Nc9cn(C)c(C(=O)Nc%10cn(C)c(C(=O)Nc%11cc(C(=O)NCCC(=O)NCCCN(C)C)n(C)c%11)n%10)n9)n(C)c8)n7)n(C)c6)n5)n(C)c4)n(C)c3)n2)cc1 [esterified SAHA+p16 PIP, 4-(8-methoxy-8-oxooctanamido)benzoyl-ββImPyPyβImPyγImPyβImIm PyβDp] |  |  | not suppressed | no HDAC activity | did not inhibit HDAC activity |
| CC(/C=C/C(=O)NO)=C\[C@@H](C)C(=O)c1ccc(N(C)C)cc1 [TSA, trichostatin A, reference compound] |  |  | proliferation inhibition | high activity |  |
| SAHA-(PEG) ββImPyPyβImPyγImPyβImImPyβDp [SAHA+ether linker+p16 PIP] |  |  |  | confirmed to have anti-HDAC activity |  |
| CN(C)CCCNC(=O)CCNC(=O)c1cc(NC(=O)c2cc(NC(=O)c3nc(NC(=O)CCCNC(=O)c4cc(NC(=O)c5nc(NC(=O)c6nc(NC(=O)CCNC(=O)CCNC(=O)c7ccc(NC(=O)CCCCCCC(=O)NO)cc7)cn6C)cn5C)cn4C)cn3C)cn2C)cn1C [SAHA+non-targeting PIP, SAHA-ββImPyPyγImImPyβDp] |  |  | not suppressed | confirmed to have anti-HDAC activity |  |
| O=C(CCCCCCC(=O)Nc1ccccc1)NO [SAHA, suberoylanilide hydroxamic acid, reference compound] |  |  | did not suppress |  |  |
